Results on three molecules are retold here after patent US20190134234A1, “COMPOSITION FOR STABILIZING RADIOCHEMICAL PURITY OF [18F] FLUORO-DOPA AND METHOD FOR PREPARING SAME” (CI-CO HEALTHCARE CO., LTD., priority 2015, published 2019).

Data set [1] is described as follows: Radiochemical purity of [18F]FDG by TLC after pH adjustment, standing at room temperature. It is filed as physicochemical. Conditions: for radiochemical purity: room temperature. The protocol: [^18F]FDG (radiochemical purity 100%) was prepared according to known procedure (Ind. J. Appl. Radiatl Isot 35 1984 985-986) was formulated with physiological saline and hydrogen ion concentration was adjusted to 6, 7, and 8, respectively, using sodium bicarbonate, and then was allowed to stand at room temperature for 0, 2, 4, and 6 hours.

The nature of data set [2]: Radiochemical purity by HPLC after neutralization with sodium bicarbonate, standing at room temperature. Conditions: for radiochemical purity: room temperature; for impurities generated (HPLC chromatogram): pH 7, room temperature, no ethanol. It is filed as physicochemical. The protocol: [^18F]fluoro-dopa (radiochemical purity 100%) was prepared according to known procedures (see Appl. Radiat. Isot. 672009 1650-1653), the initial hydrogen ion concentration of the prepared [^18F]fluoro-dopa (radiochemical purity 100%) is 4. This was formulated into physiological saline, and hydrogen ion concentration was adjusted to 6, 7, and 8, respectively, using sodium bicarbonate. Each time the solution was allowed to stand at room temperature (or at room temperature) for 0, 2, 4 and 6 hours, high-performance liquid chromatograph (HPLC) was used to measure the radiochemical purity. […]
[^18F]fluoro-dopa (radiochemical purity 100%) was prepared according to known procedures (see: Appl. Radiat. Isot. 67 2009 1650-1653), and the hydrogen ion concentration was adjusted to 7 (pH 7) using sodium bicarbonate after preparation with physiological saline. The determination of whether the radiochemical purity was generated was confirmed by measurement using HPLC (high-performance liquid chromatography) after 2 and 6 hours at room temperature. The results are illustrated in FIGS. 1 and 2. […]

For data set [3] the following is noted: IASOdopa SPC; cited from earlier work.

SMILES strings stand for the structures. Where only a bound is given, the exact number is not on record here.

Take `OC[C@H]1OC(O)[C@H]([18F])[C@@H](O)[C@@H]1O` (some centres unmarked) [[^18F]FDG]: the radiochemical purity was 99.07% in data set [1] (pH 6, 0 hour); 98.04% in data set [1] (pH 6, 2 hours); 98.12% in data set [1] (pH 6, 4 hours); 99.12% in data set [1] (pH 6, 6 hours); 99.23% in data set [1] (pH 7, 0 hour); 100% in data set [1] (pH 7, 2 hours). For the same molecule, the radiochemical purity in data set [1] (pH 7, 4 hours) is 99.46%; in data set [1] (pH 7, 6 hours), 98.12%; in data set [1] (pH 8, 0 hour), 99.78%; in data set [1] (pH 8, 2 hours), 99.01%; in data set [1] (pH 8, 4 hours), 99.89%; in data set [1] (pH 8, 6 hours), 100%. Besides, the “radiochemical purity over time at a neutral pH” value in data set [1] (pH 6 to 8, physiological saline, up to 6 hours) was at least 90%.
On to `Cc1cn([C@H]2C[C@H]([18F])[C@@H](CO)O2)c(=O)[nH]c1=O` [[^18F]FLT], for which the radiochemical purity was 100% in data set [2] (pH 6, 0 hour, HPLC); 100% in data set [2] (pH 6, 2 hours, HPLC); 99.78% in data set [2] (pH 6, 4 hours, HPLC); 100% in data set [2] (pH 6, 6 hours, HPLC); 100% in data set [2] (pH 7, 0 hour, HPLC); 100% in data set [2] (pH 7, 2 hours, HPLC). Further, the radiochemical purity turned out to be 100% in data set [2] (pH 7, 4 hours, HPLC); 100% in data set [2] (pH 7, 6 hours, HPLC); 99.15% in data set [2] (pH 8, 0 hour, HPLC); 100% in data set [2] (pH 8, 2 hours, HPLC); 99.29% in data set [2] (pH 8, 4 hours, HPLC); 100% in data set [2] (pH 8, 6 hours, HPLC). Further, the “radiochemical purity over time at a neutral pH” value in data set [2] (pH 6 to 8, physiological saline, up to 6 hours, HPLC) was at least 90%.
Regarding `N[C@@H](Cc1cc(O)c(O)cc1[18F])C(=O)O` [[^18F]fluoro-dopa, L-6-[^18F]FLUORO-3,4-DIHYDROXYPHENYLALANINE], the radiochemical purity in data set [2] (pH 6, 0 hour, HPLC) turned out to be 100%; in data set [2] (pH 6, 2 hours, HPLC), 96.66%; in data set [2] (pH 6, 4 hours, HPLC), 92.6%; in data set [2] (pH 6, 6 hours, HPLC), 87.95%; in data set [2] (pH 7, 0 hour, HPLC), 100%; in data set [2] (pH 7, 2 hours, HPLC), 92.02%. Moreover, the radiochemical purity is 78.67% in data set [2] (pH 7, 4 hours, HPLC); 63.81% in data set [2] (pH 7, 6 hours, HPLC); 99.73% in data set [2] (pH 8, 0 hour, HPLC); 91.14% in data set [2] (pH 8, 2 hours, HPLC); 76.58% in data set [2] (pH 8, 4 hours, HPLC); 51.78% in data set [2] (pH 8, 6 hours, HPLC). Also, the “impurities generated (HPLC chromatogram)” value in data set [2] (2 hours after neutralization) was “the first impurity (IMP 1) was generated”; in data set [2] (6 hours after neutralization) it was “the first impurity (IMP 1) and the second purity (IMP 2) were generated”. In data set [3], the “pH at which it is oxidized” value is on record as at least 4.5.
